Data from patent US20240300948A1, “Heterocyclic Compounds As Kinase Inhibitors” (Incyte Corporation, priority 2023, published 2024).

What was measured:
[1] = target: T1, catalytic domain (JH1, amino acids 826-1132) of human JAK2 (Homo sapiens, UniProt O60674); experiment: JAK2 LanthaScreen JH1 binding assay; details: 50 nM tracer, 2 hours at 25° C., read-out: JH1 BIND IC50
T1 construct: catalytic domain (JH1, amino acids 826-1132) of human JAK2; FLAG (N); purchased Carna Biosciences 08-445-20N; host or cells: baculovirus expression system
Experimental: Example A. JAK2 LanthaScreen […] Binding Assay
JAK2 JH1 binding assay utilizes catalytic domain (JH1, amino acids 826-1132) of human JAK2 expressed as N-terminal FLAG-tagged, biotinylated protein in a baculovirus expression system (Carna Biosciences, Product #08-445-20N). The assay was conducted in black 384-well polystyrene plates in a final reaction volume of 20 μL. JAK2 JH1 (1.5 nM) was incubated with compounds (100 nL serially diluted in DMSO) in the presence of 50 nM fluorescent JAK2-JH1 tracer and 0.5 nM Streptavidin-Tb cryptate (Cisbio Part #610SATLB) in assay buffer (50 mM Tris, pH=7.5, 10 mM MgCl2, 0.01% Brij-35, 0.1% BSA, 1 mM EGTA, 5% Glycerol and 5 mM DTT). Non-specific binding was accessed in the presence of 2 mM ATP. After incubation for 2 hours at 25° C., LanthaScreen signals were read on a PHERAstar FS plate reader (BMG LABTECH). Data was analyzed with IDBS XLfit and GraphPad Prism 5.0 software using a four parameter dose response curve to determine IC50 for each compound.

[2] = target: T2, pseudo-kinase domain (JH2, amino-acids 536-812 with 3 surface mutations W659A, W777A, F794H) of human V617F mutant JAK2 (Homo sapiens, UniProt O60674, F794H/V617F/W659A/W777A); experiment: JAK2 LanthaScreen JH2-V617F binding assay; details: 50 nM tracer, 1 hour at 25° C., read-out: JH2 BIND V617F IC50
T2 construct: pseudo-kinase domain (JH2, amino-acids 536-812 with 3 surface mutations W659A, W777A, F794H); His (C); Avi (biotinylated) (C); purchased BPS Bioscience 79498; host or cells: baculovirus expression system
Experimental: Example C. JAK2 LanthaScreen JH2-V617F Binding Assay
(§1) JAK2 JH2-V617F binding assay utilizes pseudo-kinase domain (JH2, amino-acids 536-812 with 3 surface mutations W659A, W777A, F794H) of human V617F mutant JAK2 expressed as C-terminal His-Avi-tagged, biotinylated protein in a baculovirus expression system (BPS Bioscience, Catalog #79498). The assay was conducted in black 384-well polystyrene plates in a final reaction volume of 20 μL. JAK2 JH2-V617F (0.26 nM) was incubated with compounds (100 nL serially diluted in DMSO) in the presence of 50 nM Fluorescent JAK2-JH2 Tracer (MedChem Express Catalog #HY-102055) and 0.25 nM Streptavidin-Tb cryptate (Cisbio Part #610SATLB) in assay buffer (50 mM Tris, pH=7.5, 10 mM MgCl2, 0.01% Brij-35, 0.1% BSA, 1 mM EGTA, 5% Glycerol and 5 mM DTT). Non-specific binding was accessed in the presence of 2 mM ATP. After incubation for 1 hour at 25° C., LanthaScreen signals were read on a PHERAstar FS plate reader (BMG LABTECH). Data was analyzed with IDBS XLfit and GraphPad Prism 5.0 software using a four parameter dose response curve to determine IC50 for each compound.

[3] = target: T3, pseudo-kinase domain (JH2, amino-acids 536-812 with 3 surface mutations W659A, W777A, F794H) of human Wild Type JAK2 (Homo sapiens, UniProt O60674, F794H/W659A/W777A); experiment: JAK2 LanthaScreen JH2-WT binding assay; details: 50 nM tracer, 1 hour at 25° C., read-out: JH2 BIND WT IC50
T3 construct: pseudo-kinase domain (JH2, amino-acids 536-812 with 3 surface mutations W659A, W777A, F794H); His (C); Avi (biotinylated) (C); purchased BPS Bioscience 79463; host or cells: baculovirus expression system
Experimental: Example B. JAK2 LanthaScreen JH2-WT Binding Assay
as §1, with “JH2-WT” for “JH2-V617F”, “Wild Type” for “V617F mutant”, “#79463).” for “#79498).”, “JH2-WT (0.145” for “JH2-V617F (0.26”

T1 sequence (O60674 826-1132): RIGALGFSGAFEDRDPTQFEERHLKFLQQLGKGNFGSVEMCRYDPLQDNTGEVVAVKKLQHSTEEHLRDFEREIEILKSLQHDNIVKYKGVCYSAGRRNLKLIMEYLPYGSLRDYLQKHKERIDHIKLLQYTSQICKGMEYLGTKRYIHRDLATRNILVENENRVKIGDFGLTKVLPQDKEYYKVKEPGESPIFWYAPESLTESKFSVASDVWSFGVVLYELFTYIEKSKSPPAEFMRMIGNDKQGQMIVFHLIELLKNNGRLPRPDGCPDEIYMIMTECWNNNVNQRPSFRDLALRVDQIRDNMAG
T3 sequence (O60674 536-812 W659A/W777A/F794H): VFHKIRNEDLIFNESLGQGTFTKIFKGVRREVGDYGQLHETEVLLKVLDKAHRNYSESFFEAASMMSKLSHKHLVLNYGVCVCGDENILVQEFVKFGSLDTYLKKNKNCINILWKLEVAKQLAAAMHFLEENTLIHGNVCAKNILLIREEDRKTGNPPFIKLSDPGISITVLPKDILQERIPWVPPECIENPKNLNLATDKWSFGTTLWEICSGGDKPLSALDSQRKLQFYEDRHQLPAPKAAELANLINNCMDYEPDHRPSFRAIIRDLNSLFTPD
T2 sequence (O60674 536-812 V617F/W659A/W777A/F794H): as the sequence (O60674 536-812 W659A/W777A/F794H) above, with V82F counted along it

SMILES | IC50 [1] [nM] | IC50 [2] [nM] | IC50 [3] [nM]
CC(C)n1ncc2cc(-c3c(-c4cnn(C)c4)[nH]c4ncc5c(c34)N([C@H]3CC[C@@H]3NC(=O)NCC(F)F)C(=O)NC5)ccc21 (racemic) [Example 8, N-(2,2-Difluoroethyl)-3-(trans-2-(9-(1-isopropyl-1H-indazol-5-yl)-8-(1-methyl-1H-pyrazol-4-yl)-2-oxo-2,3,4,7-tetrahydro-1H-pyrrolo[3′,2′:5,6]pyrido[4,3-d]pyrimidin-1-yl)cyclobutyl)urea] | > 1000 | 100 to 500 | 10 to 100
COC(=O)N[C@@H]1CC[C@@H](n2c(=O)[nH]c(=O)c3cnc4[nH]c(-c5cnn(C)c5)c(-c5ccc6c(cnn6C(C)C)c5)c4c32)C1 [Example 39, Methyl ((1R,3R)-3-(9-(1-isopropyl-1H-indazol-5-yl)-8-(1-methyl-1H-pyrazol-4-yl)-2,4-dioxo-2,3,4,7-tetrahydro-1H-pyrrolo[3′,2′:5,6]pyrido[4,3-d]pyrimidin-1-yl)cyclopentyl)carbamate] | > 1000 | 10 to 100 | 10 to 100
COC(=O)N[C@H]1C[C@H](N2C(=O)NCc3cnc4[nH]c(-c5ccc(CN6CCOCC6)cc5)c(-c5ccc6c(cnn6C(C)C)c5)c4c32)C1 [Example 33, Methyl ((1r,3r)-3-(9-(1-isopropyl-1H-indazol-5-yl)-8-(4-(morpholinomethyl)phenyl)-2-oxo-2,3,4,7-tetrahydro-1H-pyrrolo[3′,2′:5,6]pyrido[4,3-d]pyrimidin-1-yl)cyclobutyl)carbamate] | > 1000 | ≤ 10 | ≤ 10
CC(=O)N1CCC(N2C(=O)NCc3cnc4[nH]c(-c5cnn(C)c5)c(-c5ccc6c(cnn6C(C)C)c5)c4c32)CC1 [Example 15, 1-(1-Acetylpiperidin-4-yl)-9-(1-isopropyl-1H-indazol-5-yl)-8-(1-methyl-1H-pyrazol-4-yl)-1,3,4,7-tetrahydro-2H-pyrrolo [3′,2′:5,6]pyrido[4,3-d]pyrimidin-2-one] | > 1000 | 10 to 100 | 10 to 100
COC(=O)N[C@@H]1CC[C@@H](N2C(=O)NCc3cnc4[nH]c(-c5cnn(C)c5)c(-c5ccc(OC6CCOC6)cc5)c4c32)C1 (mixture of isomers) [Example 27, Methyl ((1R,3R)-3-(8-(1-methyl-1H-pyrazol-4-yl)-2-oxo-9-(4-((tetrahydrofuran-3-yl)oxy)phenyl)-2,3,4,7-tetrahydro-1H-pyrrolo[3′,2′:5,6]pyrido[4,3-d]pyrimidin-1-yl)cyclopentyl)ca rbamate] | 100 to 500 | 10 to 100 | 10 to 100
CC(C)n1ncc2cc(-c3c(-c4cnn(C)c4)[nH]c4ncc5c(c34)N([C@H]3C[C@@H](NC(=O)Cc4ccn(C)n4)C3)C(=O)NC5)ccc21 [Example 21, N-((1s,3s)-3-(9-(1-Isopropyl-1H-indazol-5-yl)-8-(1-methyl-1H-pyrazol-4-yl)-2-oxo-2,3,4,7-tetrahydro-1H-pyrrolo[3′,2′:5,6]pyrido[4,3-d]pyrimidin-1-yl)cyclobutyl)-2-(1-methyl-1H-pyrazol-3-yl)acetamide] | 500 to 1000 | 10 to 100 | 10 to 100
COC(=O)N[C@@H]1CC[C@@H](N2C(=O)NCc3cnc4[nH]c(-c5cnn(C)c5)c(-c5ccc6c(c5)COC6(C)C)c4c32)C1 [Example 26, Methyl ((1R,3R)-3-(9-(1,1-dimethyl-1,3-dihydroisobenzof uran-5-yl)-8-(1-methyl-1H-pyrazol-4-yl)-2-oxo-2,3,4,7-tetrahydro-1H-pyrrolo[3′,2′:5,6]pyrido[4,3-d]pyrimidin-1-yl)cyclopentyl)ca rbamate] | 500 to 1000 | ≤ 10 | ≤ 10
COC(=O)N[C@@H]1CC[C@@H](n2c(=O)nc(OC)c3cnc4[nH]c(-c5cnn(C)c5)c(-c5ccc6c(cnn6C(C)C)c5)c4c32)C1 [Example 40, Methyl ((1R,3R)-3-(9-(1-isopropyl-1H-indazol-5-yl)-4-methoxy-8-(1-methyl-1H-pyrazol-4-yl)-2-oxo-2,7-dihydro-1H-pyrrolo[3′,2′:5,6]pyrido[4,3-d]pyrimidin-1-yl)cyclopentyl)carbamate] | > 1000 | 100 to 500 | 10 to 100
CC(=O)N[C@@H]1CC[C@@H](N2C(=O)NCc3cnc4[nH]c(-c5cnn(C)c5)c(-c5ccc6c(cnn6C(C)C)c5)c4c32)C1 [Example 9, N-((1R,3R)-3-(9-(1-Isopropyl-1H-indazol-5-yl)-8-(1-methyl-1H-pyrazol-4-yl)-2-oxo-2,3,4,7-tetrahydro-1H-pyrrolo[3′,2′:5,6]pyrido[4,3-d]pyrimidin-1-yl)cyclopentyl) acetamide] | > 1000 | 10 to 100 | 10 to 100
COC(=O)N[C@H]1C[C@H](N2C(=O)NCc3cnc4[nH]c(C5CC5)c(-c5ccc6c(cnn6C(C)C)c5)c4c32)C1 [Example 36, Methyl ((1r,3r)-3-(8-cyclopropyl-9-(1-isopropyl-1H-indazol-5-yl)-2-oxo-2,3,4,7-tetrahydro-1H-pyrrolo[3′,2′:5,6]pyrido [4,3-d]pyrimidin-1-yl)cyclobutyl) carbamate] | > 1000 | 10 to 100 | 10 to 100
CC(C)n1ncc2cc(-c3c(-c4cnn(C)c4)[nH]c4ncc5c(c34)N(C3CCC4(CC3)CN(C(=O)NCC(F)F)C4)C(=O)NC5)ccc21 [Example 19, N-(2,2-Difluoroethyl)-7-(9-(1-isopropyl-1H-indazol-5-yl)-8-(1-methyl-1H-pyrazol-4-yl)-2-oxo-2,3,4,7-tetrahydro-1H-pyrrolo[3′,2′:5,6]pyrido[4,3-d]pyrimidin-1-yl)-2-azaspiro[3.5] nonane-2-carboxamide] | 100 to 500 | 10 to 100 | 10 to 100
COC(=O)N[C@]1(C)CC[C@H](N2C(=O)NCc3cnc4[nH]c(-c5cnn(C)c5)c(-c5ccc6c(cnn6C(C)C)c5)c4c32)CC1 [Example 13, Methyl ((1s,4s)-4-(9-(1-isopropyl-1H-indazol-5-yl)-8-(1-methyl-1H-pyrazol-4-yl)-2-oxo-2,3,4,7-tetrahydro-1H-pyrrolo[3′,2′:5,6]pyrido[4,3-d]pyrimidin-1-yl)-1-methylcyclohexyl)carbamate] | > 1000 | 10 to 100 | 10 to 100
COC(=O)N[C@@H]1CC[C@@H](n2c(=O)ncc3cnc4[nH]c(-c5cnn(C)c5)c(-c5ccc6c(cnn6C)c5)c4c32)C1 [Example 37, Methyl ((1R,3R)-3-(9-(1-methyl-1H-indazol-5-yl)-8-(1-methyl-1H-pyrazol-4-yl)-2-oxo-2,7-dihydro-1H-pyrrolo[3′,2′:5,6]pyrido[4,3-d]pyrimidin-1-yl)cyclopentyl)carbamate] | > 1000 | 100 to 500 | 100 to 500
